Each structure is given as a SMILES string. Active and inactive are the calls of the source.

In the first data set the target is Toxin B (Clostridioides difficile, UniProt P18177). Briefly: Inhibition of C-terminal 6-His tagged recombinant Clostridium difficile toxin B catalytic fragment (Met1 to Leu543 residues) assessed as reduction in glucosyltransferase domain UDP-glucose hydrolysis activity using UDP-glucose and ADP Alexa633 tracer incubated fore 3 hrs by fluorescence polarization assay. Background: Fluorescence polarisation rises when a labelled molecule tumbles more slowly, as on binding a larger partner.
Toxin B, sequence (P18177 whole entry, the tested form may be a part): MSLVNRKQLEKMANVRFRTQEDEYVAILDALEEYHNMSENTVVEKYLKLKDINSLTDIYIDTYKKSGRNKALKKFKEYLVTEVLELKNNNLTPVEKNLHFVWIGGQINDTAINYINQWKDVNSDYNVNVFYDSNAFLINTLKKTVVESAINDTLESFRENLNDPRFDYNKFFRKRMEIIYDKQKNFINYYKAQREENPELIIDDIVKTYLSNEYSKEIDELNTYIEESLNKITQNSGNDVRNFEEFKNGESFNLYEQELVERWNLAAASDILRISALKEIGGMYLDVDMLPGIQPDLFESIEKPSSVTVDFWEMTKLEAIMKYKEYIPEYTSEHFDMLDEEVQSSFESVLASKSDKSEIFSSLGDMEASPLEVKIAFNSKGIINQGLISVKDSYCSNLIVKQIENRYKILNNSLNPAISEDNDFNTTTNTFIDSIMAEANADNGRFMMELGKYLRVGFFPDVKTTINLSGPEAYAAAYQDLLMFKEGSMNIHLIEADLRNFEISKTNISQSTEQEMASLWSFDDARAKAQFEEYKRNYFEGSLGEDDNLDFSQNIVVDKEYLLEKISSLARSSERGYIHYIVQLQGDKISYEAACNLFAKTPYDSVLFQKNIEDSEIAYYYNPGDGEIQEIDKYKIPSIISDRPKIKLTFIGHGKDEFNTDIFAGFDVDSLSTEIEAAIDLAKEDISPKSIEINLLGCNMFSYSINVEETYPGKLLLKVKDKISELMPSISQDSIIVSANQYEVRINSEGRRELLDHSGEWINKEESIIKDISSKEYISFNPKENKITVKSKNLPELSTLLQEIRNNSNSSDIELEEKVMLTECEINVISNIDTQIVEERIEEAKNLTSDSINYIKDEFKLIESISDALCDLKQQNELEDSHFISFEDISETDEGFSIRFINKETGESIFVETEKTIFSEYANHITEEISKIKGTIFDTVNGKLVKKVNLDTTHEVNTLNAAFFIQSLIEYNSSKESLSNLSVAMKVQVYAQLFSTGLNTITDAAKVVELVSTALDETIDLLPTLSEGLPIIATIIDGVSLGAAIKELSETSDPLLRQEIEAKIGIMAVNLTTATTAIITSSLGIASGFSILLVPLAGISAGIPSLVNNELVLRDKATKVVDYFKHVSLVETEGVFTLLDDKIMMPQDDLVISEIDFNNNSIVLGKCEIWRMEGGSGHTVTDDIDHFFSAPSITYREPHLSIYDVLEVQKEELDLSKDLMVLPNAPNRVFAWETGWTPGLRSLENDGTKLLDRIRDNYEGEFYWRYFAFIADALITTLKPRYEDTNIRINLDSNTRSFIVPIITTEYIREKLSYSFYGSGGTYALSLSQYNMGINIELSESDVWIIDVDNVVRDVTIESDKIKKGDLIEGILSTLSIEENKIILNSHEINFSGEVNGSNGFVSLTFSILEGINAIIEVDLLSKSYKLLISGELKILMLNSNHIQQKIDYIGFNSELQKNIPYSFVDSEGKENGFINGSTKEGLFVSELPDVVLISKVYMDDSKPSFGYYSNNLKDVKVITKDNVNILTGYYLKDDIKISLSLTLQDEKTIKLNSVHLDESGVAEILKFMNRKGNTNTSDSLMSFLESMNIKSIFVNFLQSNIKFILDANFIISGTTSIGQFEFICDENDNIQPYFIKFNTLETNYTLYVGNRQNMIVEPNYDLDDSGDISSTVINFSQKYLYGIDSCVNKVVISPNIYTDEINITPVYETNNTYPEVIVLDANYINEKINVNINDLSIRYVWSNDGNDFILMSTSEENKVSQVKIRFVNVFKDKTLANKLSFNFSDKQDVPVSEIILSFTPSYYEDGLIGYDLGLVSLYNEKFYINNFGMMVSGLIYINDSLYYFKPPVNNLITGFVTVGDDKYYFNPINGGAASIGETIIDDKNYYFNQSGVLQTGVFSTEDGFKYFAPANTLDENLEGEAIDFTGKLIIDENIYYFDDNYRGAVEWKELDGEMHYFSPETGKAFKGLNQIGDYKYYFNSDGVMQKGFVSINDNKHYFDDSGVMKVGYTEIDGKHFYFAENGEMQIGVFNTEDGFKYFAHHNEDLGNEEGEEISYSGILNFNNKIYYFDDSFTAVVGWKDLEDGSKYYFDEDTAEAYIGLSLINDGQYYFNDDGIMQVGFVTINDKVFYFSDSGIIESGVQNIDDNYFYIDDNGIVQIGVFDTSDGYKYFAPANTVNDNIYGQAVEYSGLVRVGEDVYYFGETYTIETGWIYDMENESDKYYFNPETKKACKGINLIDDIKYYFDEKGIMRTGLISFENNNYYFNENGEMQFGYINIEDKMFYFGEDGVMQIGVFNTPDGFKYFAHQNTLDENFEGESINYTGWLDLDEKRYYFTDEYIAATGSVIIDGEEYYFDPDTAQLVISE
The term IC50 denotes the midpoint of a concentration-inhibition curve. As to `O=C(O)c1ccc(CN2C(=O)c3ccc(Cl)cc3NC(=O)[C@H]2Cc2ccc(O)cc2)cc1`, the IC50 worked out at 2 µM.
The same measure, in the same setting: to `C[C@@H]1C(=O)Nc2cc(Cl)ccc2C(=O)N1Cc1ccc(C(=O)O)cc1` belongs 21 µM; to `O=C(O)c1ccc(CN2C(=O)c3ccc(Cl)cc3NC(=O)[C@H]2CC2CCCCC2)cc1`, 84 µM; to `O=C(Nc1ccccc1)c1ccc(CN2C(=O)c3ccc(Cl)cc3NC(=O)[C@H]2Cc2cccnc2)cc1`, 22 µM.
Turning to `O=C(O)c1ccc(CN2C(=O)c3ccc(Cl)cc3NC(=O)[C@H]2Cc2ccccc2Cl)cc1`, the IC50 is 2.3 µM.
Regarding `O=C(O)c1ccc(CN2C(=O)c3ccc(Cl)cc3NC(=O)[C@H]2CCc2ccccc2)cc1`, the IC50 was 23 µM.
On the same count and under the same terms, with `COC(=O)c1ccc(CN2C(=O)c3ccc(Cl)cc3NC(=O)[C@H]2Cc2cccnc2)cc1` the figure was above 80 µM; with `O=C(O)c1ccc(CN2C(=O)c3ccc(Cl)cc3NC(=O)[C@@H]2Cc2ccccn2)cc1`, 0.5 µM.
Take `Cc1ccc2c(c1)NC(=O)[C@@H](Cc1ccc(Cl)c(Cl)c1)N(Cc1ccc(C(=O)O)cc1)C2=O`: the IC50 stood at 12 µM.
On the same count and under the same terms, with `O=C(O)c1ccc(CN2C(=O)c3ccc(Cl)cc3NC(=O)[C@H]2Cc2ccncc2)cc1` the figure was 18 µM.
Still for that read-out and setting: with `O=C(O)c1ccc(CN2C(=O)c3ccc(Cl)cc3NC(=O)[C@H]2Cc2nccs2)cc1` the figure was 2.3 µM; with `O=C(O)c1ccc(CN2C(=O)c3ccc(F)cc3NC(=O)[C@H]2Cc2cccnc2)cc1`, 8.6 µM; with `O=C(O)c1ccc(CN2C(=O)c3ccccc3NC(=O)[C@H]2Cc2ccc(Cl)c(Cl)c2)cc1`, 2.1 µM.
On the same count and under the same terms, to `O=C(O)c1ccc(CN2C(=O)c3ccc(Cl)cc3NC(=O)[C@@H]2Cc2ccc(Cl)c(Cl)c2)cc1` belongs 2.1 µM; to `CC(C)C[C@@H]1C(=O)Nc2cc(Cl)ccc2C(=O)N1Cc1ccc(C(=O)O)cc1`, above 80 µM; to `NC(=O)c1ccc(CN2C(=O)c3ccc(Cl)cc3NC(=O)[C@@H]2Cc2ccc(Cl)c(Cl)c2)cc1`, 16 µM.

The next data set deals with Bifidobacterium longum. Briefly: Effect on growth of Bifidobacterium longum at 0.5 to 100 uM incubated for 24 hrs under anaerobic conditions by spectrophotometry. It is filed as organism-based.
For `O=C(O)c1ccc(CN2C(=O)c3ccc(Cl)cc3NC(=O)[C@H]2Cc2ccc(O)cc2)cc1`, the Activity entry was “Non-Toxic”.
The same measure, in the same setting: to `C[C@@H]1C(=O)Nc2cc(Cl)ccc2C(=O)N1Cc1ccc(C(=O)O)cc1` belongs “Non-Toxic”; to `O=C(O)c1ccc(CN2C(=O)c3ccc(Cl)cc3NC(=O)[C@H]2CC2CCCCC2)cc1`, “Non-Toxic”.
On to `O=C(Nc1ccccc1)c1ccc(CN2C(=O)c3ccc(Cl)cc3NC(=O)[C@H]2Cc2cccnc2)cc1`, for which the Activity result is on record as “Non-Toxic”.
Still for that read-out and setting: to `O=C(O)c1ccc(CN2C(=O)c3ccc(Cl)cc3NC(=O)[C@H]2Cc2ccccc2Cl)cc1` belongs “Non-Toxic”; to `O=C(O)c1ccc(CN2C(=O)c3ccc(Cl)cc3NC(=O)[C@H]2CCc2ccccc2)cc1`, “Non-Toxic”; to `COC(=O)c1ccc(CN2C(=O)c3ccc(Cl)cc3NC(=O)[C@H]2Cc2cccnc2)cc1`, “Non-Toxic”.
On the same count and under the same terms, with `O=C(O)c1ccc(CN2C(=O)c3ccc(Cl)cc3NC(=O)[C@@H]2Cc2ccccn2)cc1` the entry was “Non-Toxic”.
On the same count and under the same terms, to `Cc1ccc2c(c1)NC(=O)[C@@H](Cc1ccc(Cl)c(Cl)c1)N(Cc1ccc(C(=O)O)cc1)C2=O` belongs “Non-Toxic”.
As to `O=C(O)c1ccc(CN2C(=O)c3ccc(Cl)cc3NC(=O)[C@H]2Cc2ccncc2)cc1`, the Activity entry was “Non-Toxic”.
Same read-out and setting: with `O=C(O)c1ccc(CN2C(=O)c3ccc(Cl)cc3NC(=O)[C@H]2Cc2nccs2)cc1` the entry was “Non-Toxic”; with `O=C(O)c1ccc(CN2C(=O)c3ccc(F)cc3NC(=O)[C@H]2Cc2cccnc2)cc1`, “Non-Toxic”.
Regarding `O=C(O)c1ccc(CN2C(=O)c3ccccc3NC(=O)[C@H]2Cc2ccc(Cl)c(Cl)c2)cc1`, the Activity result is “Non-Toxic”.
The same measure, in the same setting: to `O=C(O)c1ccc(CN2C(=O)c3ccc(Cl)cc3NC(=O)[C@@H]2Cc2ccc(Cl)c(Cl)c2)cc1` belongs “Non-Toxic”; to `CC(C)C[C@@H]1C(=O)Nc2cc(Cl)ccc2C(=O)N1Cc1ccc(C(=O)O)cc1`, “Non-Toxic”; to `NC(=O)c1ccc(CN2C(=O)c3ccc(Cl)cc3NC(=O)[C@@H]2Cc2ccc(Cl)c(Cl)c2)cc1`, “Non-Toxic”.

A further data set relates to Limosilactobacillus reuteri. The data set is described as follows: Effect on growth of Lactobacillus reuteri at 0.5 to 100 uM incubated for 24 hrs under anaerobic conditions by spectrophotometry. In kind it is organism-based.
For the compound `O=C(O)c1ccc(CN2C(=O)c3ccc(Cl)cc3NC(=O)[C@H]2Cc2ccc(O)cc2)cc1`, the Activity result is “Non-Toxic”.
Turning to `C[C@@H]1C(=O)Nc2cc(Cl)ccc2C(=O)N1Cc1ccc(C(=O)O)cc1`, the Activity result is “Non-Toxic”.
Turning to `O=C(O)c1ccc(CN2C(=O)c3ccc(Cl)cc3NC(=O)[C@H]2CC2CCCCC2)cc1`, the Activity result is “Non-Toxic”.
The same measure, in the same setting: to `O=C(Nc1ccccc1)c1ccc(CN2C(=O)c3ccc(Cl)cc3NC(=O)[C@H]2Cc2cccnc2)cc1` belongs “Non-Toxic”; to `O=C(O)c1ccc(CN2C(=O)c3ccc(Cl)cc3NC(=O)[C@H]2Cc2ccccc2Cl)cc1`, “Non-Toxic”; to `O=C(O)c1ccc(CN2C(=O)c3ccc(Cl)cc3NC(=O)[C@H]2CCc2ccccc2)cc1`, “Non-Toxic”.
The same measure, in the same setting: to `COC(=O)c1ccc(CN2C(=O)c3ccc(Cl)cc3NC(=O)[C@H]2Cc2cccnc2)cc1` belongs “Non-Toxic”.
The same measure, in the same setting: to `O=C(O)c1ccc(CN2C(=O)c3ccc(Cl)cc3NC(=O)[C@@H]2Cc2ccccn2)cc1` belongs “Non-Toxic”.
With `Cc1ccc2c(c1)NC(=O)[C@@H](Cc1ccc(Cl)c(Cl)c1)N(Cc1ccc(C(=O)O)cc1)C2=O`, the Activity entry is “Non-Toxic”.
As to `O=C(O)c1ccc(CN2C(=O)c3ccc(Cl)cc3NC(=O)[C@H]2Cc2ccncc2)cc1`, the Activity result was “Non-Toxic”.
With `O=C(O)c1ccc(CN2C(=O)c3ccc(Cl)cc3NC(=O)[C@H]2Cc2nccs2)cc1`, the Activity entry is reported as “Non-Toxic”.
The same measure, in the same setting: to `O=C(O)c1ccc(CN2C(=O)c3ccc(F)cc3NC(=O)[C@H]2Cc2cccnc2)cc1` belongs “Non-Toxic”; to `O=C(O)c1ccc(CN2C(=O)c3ccccc3NC(=O)[C@H]2Cc2ccc(Cl)c(Cl)c2)cc1`, “Non-Toxic”.
Same read-out and setting: to `O=C(O)c1ccc(CN2C(=O)c3ccc(Cl)cc3NC(=O)[C@@H]2Cc2ccc(Cl)c(Cl)c2)cc1` belongs “Non-Toxic”.
Still for that read-out and setting: to `CC(C)C[C@@H]1C(=O)Nc2cc(Cl)ccc2C(=O)N1Cc1ccc(C(=O)O)cc1` belongs “Non-Toxic”.
`NC(=O)c1ccc(CN2C(=O)c3ccc(Cl)cc3NC(=O)[C@@H]2Cc2ccc(Cl)c(Cl)c2)cc1`: the Activity result is “Non-Toxic”.

The next data set has as its system Bacteroides fragilis. Briefly: Effect on growth of Bacteroides fragilis at 0.5 to 100 uM incubated for 48 hrs under anaerobic conditions by spectrophotometry. It is filed as organism-based.
In the case of `O=C(O)c1ccc(CN2C(=O)c3ccc(Cl)cc3NC(=O)[C@H]2Cc2ccc(O)cc2)cc1`, the Activity entry is listed as “Non-Toxic”.
On the same count and under the same terms, to `C[C@@H]1C(=O)Nc2cc(Cl)ccc2C(=O)N1Cc1ccc(C(=O)O)cc1` belongs “Non-Toxic”; to `O=C(O)c1ccc(CN2C(=O)c3ccc(Cl)cc3NC(=O)[C@H]2CC2CCCCC2)cc1`, “Non-Toxic”.
Same read-out and setting: with `O=C(Nc1ccccc1)c1ccc(CN2C(=O)c3ccc(Cl)cc3NC(=O)[C@H]2Cc2cccnc2)cc1` the entry was “Non-Toxic”; with `O=C(O)c1ccc(CN2C(=O)c3ccc(Cl)cc3NC(=O)[C@H]2Cc2ccccc2Cl)cc1`, “Non-Toxic”.
The same measure, in the same setting: with `O=C(O)c1ccc(CN2C(=O)c3ccc(Cl)cc3NC(=O)[C@H]2CCc2ccccc2)cc1` the entry was “Non-Toxic”; with `COC(=O)c1ccc(CN2C(=O)c3ccc(Cl)cc3NC(=O)[C@H]2Cc2cccnc2)cc1`, “Non-Toxic”; with `O=C(O)c1ccc(CN2C(=O)c3ccc(Cl)cc3NC(=O)[C@@H]2Cc2ccccn2)cc1`, “Non-Toxic”.
For the compound `Cc1ccc2c(c1)NC(=O)[C@@H](Cc1ccc(Cl)c(Cl)c1)N(Cc1ccc(C(=O)O)cc1)C2=O`, the Activity entry is recorded as “Non-Toxic”.
As to `O=C(O)c1ccc(CN2C(=O)c3ccc(Cl)cc3NC(=O)[C@H]2Cc2ccncc2)cc1`, the Activity result is reported as “Non-Toxic”.
Still for that read-out and setting: with `O=C(O)c1ccc(CN2C(=O)c3ccc(Cl)cc3NC(=O)[C@H]2Cc2nccs2)cc1` the entry was “Non-Toxic”.
On the same count and under the same terms, to `O=C(O)c1ccc(CN2C(=O)c3ccc(F)cc3NC(=O)[C@H]2Cc2cccnc2)cc1` belongs “Non-Toxic”.
For the compound `O=C(O)c1ccc(CN2C(=O)c3ccccc3NC(=O)[C@H]2Cc2ccc(Cl)c(Cl)c2)cc1`, the Activity result is recorded as “Non-Toxic”.
The same measure, in the same setting: to `O=C(O)c1ccc(CN2C(=O)c3ccc(Cl)cc3NC(=O)[C@@H]2Cc2ccc(Cl)c(Cl)c2)cc1` belongs “Non-Toxic”; to `CC(C)C[C@@H]1C(=O)Nc2cc(Cl)ccc2C(=O)N1Cc1ccc(C(=O)O)cc1`, “Non-Toxic”; to `NC(=O)c1ccc(CN2C(=O)c3ccc(Cl)cc3NC(=O)[C@@H]2Cc2ccc(Cl)c(Cl)c2)cc1`, “Non-Toxic”.

The test system of the next data set is Clostridioides difficile. The data set is described as follows: Effect on growth of Clostridium difficile at 0.5 to 100 uM incubated for 24 hrs under anaerobic conditions by spectrophotometry. In kind it is functional, organism-based.
`O=C(O)c1ccc(CN2C(=O)c3ccc(Cl)cc3NC(=O)[C@H]2Cc2ccc(O)cc2)cc1`: the outcome was inactive.
The same measure, in the same setting: to `C[C@@H]1C(=O)Nc2cc(Cl)ccc2C(=O)N1Cc1ccc(C(=O)O)cc1` belongs “inactive”; to `O=C(O)c1ccc(CN2C(=O)c3ccc(Cl)cc3NC(=O)[C@H]2CC2CCCCC2)cc1`, “inactive”; to `O=C(Nc1ccccc1)c1ccc(CN2C(=O)c3ccc(Cl)cc3NC(=O)[C@H]2Cc2cccnc2)cc1`, “inactive”.
For the compound `O=C(O)c1ccc(CN2C(=O)c3ccc(Cl)cc3NC(=O)[C@H]2Cc2ccccc2Cl)cc1`, the outcome was inactive.
For `O=C(O)c1ccc(CN2C(=O)c3ccc(Cl)cc3NC(=O)[C@H]2CCc2ccccc2)cc1`, the outcome was inactive.
For the compound `COC(=O)c1ccc(CN2C(=O)c3ccc(Cl)cc3NC(=O)[C@H]2Cc2cccnc2)cc1`, the outcome was inactive.
Still for that read-out and setting: with `O=C(O)c1ccc(CN2C(=O)c3ccc(Cl)cc3NC(=O)[C@@H]2Cc2ccccn2)cc1` the entry was “inactive”; with `Cc1ccc2c(c1)NC(=O)[C@@H](Cc1ccc(Cl)c(Cl)c1)N(Cc1ccc(C(=O)O)cc1)C2=O`, “inactive”.
The same measure, in the same setting: with `O=C(O)c1ccc(CN2C(=O)c3ccc(Cl)cc3NC(=O)[C@H]2Cc2ccncc2)cc1` the entry was “inactive”.
On to `O=C(O)c1ccc(CN2C(=O)c3ccc(Cl)cc3NC(=O)[C@H]2Cc2nccs2)cc1`, for which the outcome was inactive.
Still for that read-out and setting: to `O=C(O)c1ccc(CN2C(=O)c3ccc(F)cc3NC(=O)[C@H]2Cc2cccnc2)cc1` belongs “inactive”; to `O=C(O)c1ccc(CN2C(=O)c3ccccc3NC(=O)[C@H]2Cc2ccc(Cl)c(Cl)c2)cc1`, “inactive”; to `O=C(O)c1ccc(CN2C(=O)c3ccc(Cl)cc3NC(=O)[C@@H]2Cc2ccc(Cl)c(Cl)c2)cc1`, “inactive”.
Same read-out and setting: to `CC(C)C[C@@H]1C(=O)Nc2cc(Cl)ccc2C(=O)N1Cc1ccc(C(=O)O)cc1` belongs “inactive”.
The same measure, in the same setting: with `NC(=O)c1ccc(CN2C(=O)c3ccc(Cl)cc3NC(=O)[C@@H]2Cc2ccc(Cl)c(Cl)c2)cc1` the entry was “inactive”.
